# PubChem BioAssay AID1963847 (Molecular Pharmacology Branch, DTP, NCI, 2024)
# System: 415267-285-R-J2-PDC complex spheroid viability
# Test: Anticancer human tumor 415267-285-R-J2-PDC patient-derived breast carcinoma cell line growth inhibition [POLQ]
# Conditions: for IC50: curve of first compound; for viability, T/C: stronger effect = lower value
# Outline: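 PDC + HUVEC + MSC complex spheroids; POLQ inhibitors ± partner drugs; top conc. at/near clinical Cmax, else 10 microM (SN-38 1 microM), half-log dilutions; 37 degrees C, 5% CO2.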
# [1] = second compound 0.0316 µM, first compound 0.0316 µM
# [2] = second compound 0.0316 µM, first compound 0.1 µM
# [3] = second compound 0.0316 µM, first compound 0.316 µM
# [4] = second compound 0.0316 µM, first compound 1 µM
# [5] = second compound 0.0316 µM, first compound 3.16 µM
# [6] = second compound 0.0316 µM, first compound 10 µM
# [7] = second compound 0.1 µM, first compound 0.0316 µM
# [8] = second compound 0.1 µM, first compound 0.1 µM
# [9] = second compound 0.1 µM, first compound 0.316 µM
# [10] = second compound 0.1 µM, first compound 1 µM
# [11] = second compound 0.1 µM, first compound 3.16 µM
# [12] = second compound 0.1 µM, first compound 10 µM
# [13] = second compound 0.316 µM, first compound 0.0316 µM
# [14] = second compound 0.316 µM, first compound 0.1 µM
# [15] = second compound 0.316 µM, first compound 0.316 µM
# [16] = second compound 0.316 µM, first compound 1 µM
# [17] = second compound 0.316 µM, first compound 3.16 µM
# [18] = second compound 0.316 µM, first compound 10 µM
# [19] = second compound 1 µM, first compound 0.0316 µM
# [20] = second compound 1 µM, first compound 0.1 µM
# [21] = second compound 1 µM, first compound 0.316 µM
# [22] = second compound 1 µM, first compound 1 µM
# [23] = second compound 1 µM, first compound 3.16 µM
# [24] = second compound 1 µM, first compound 10 µM
# [25] = second compound 3.16 µM, first compound 0.0316 µM
# [26] = second compound 3.16 µM, first compound 0.1 µM
# [27] = second compound 3.16 µM, first compound 0.316 µM
# [28] = second compound 3.16 µM, first compound 1 µM
# [29] = second compound 3.16 µM, first compound 3.16 µM
# [30] = second compound 3.16 µM, first compound 10 µM
# [31] = second compound 10 µM, first compound 0.0316 µM
# [32] = second compound 10 µM, first compound 0.1 µM
# [33] = second compound 10 µM, first compound 0.316 µM
# [34] = second compound 10 µM, first compound 1 µM
# [35] = second compound 10 µM, first compound 3.16 µM
# [36] = second compound 10 µM, first compound 10 µM
# 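Further: spheroids exposed to compounds for one week before readout.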
# 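Wherever viability, T/C is given: luminescence used as stand-in measure of viable cells; 100% = DMSO vehicle control viability.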
smiles,measurement,setting,value
C=CC(=O)N1CCN(c2nc(=O)n(-c3c(C)ccnc3C(C)C)c3nc(-c4c(O)cccc4F)c(F)cc23)C(C)C1 (centres undefined) + COC1C(OC(N)=O)C(O)C(Oc2ccc3c(O)c(NC(=O)c4ccc(O)c(CC=C(C)C)c4)c(=O)oc3c2C)OC1(C)C,IC50,second compound 0.0316 µM,> 10 µM
same,IC50,second compound 0.1 µM,> 10 µM
same,IC50,second compound 0.316 µM,> 10 µM
same,IC50,second compound 1 µM,> 10 µM
same,IC50,second compound 3.16 µM,> 10 µM
same,IC50,second compound 10 µM,> 10 µM
same,"viability, T/C",[1],103%
same,"viability, T/C",[2],93.4%
same,"viability, T/C",[3],105%
same,"viability, T/C",[4],92.6%
same,"viability, T/C",[5],112%
same,"viability, T/C",[6],92.2%
same,"viability, T/C",[7],85.4%
same,"viability, T/C",[8],97.5%
same,"viability, T/C",[9],98.5%
same,"viability, T/C",[10],93%
same,"viability, T/C",[11],108%
same,"viability, T/C",[12],103%
same,"viability, T/C",[13],103%
same,"viability, T/C",[14],89.8%
same,"viability, T/C",[15],82.8%
same,"viability, T/C",[16],107%
same,"viability, T/C",[17],112%
same,"viability, T/C",[18],93%
same,"viability, T/C",[19],98.6%
same,"viability, T/C",[20],94.5%
same,"viability, T/C",[21],93.9%
same,"viability, T/C",[22],97%
same,"viability, T/C",[23],97.5%
same,"viability, T/C",[24],98.2%
same,"viability, T/C",[25],101%
same,"viability, T/C",[26],102%
same,"viability, T/C",[27],97.2%
same,"viability, T/C",[28],101%
same,"viability, T/C",[29],101%
same,"viability, T/C",[30],95.9%
same,"viability, T/C",[31],95.1%
same,"viability, T/C",[32],95.8%
same,"viability, T/C",[33],112%
same,"viability, T/C",[34],109%
same,"viability, T/C",[35],90.6%
same,"viability, T/C",[36],86.9%
CC(C)n1c(=O)n(C)c2cnc3cc(F)c(-c4ccc(OCCCN5CCCCC5)nc4)cc3c21 + COC1C(OC(N)=O)C(O)C(Oc2ccc3c(O)c(NC(=O)c4ccc(O)c(CC=C(C)C)c4)c(=O)oc3c2C)OC1(C)C,IC50,second compound 0.0316 µM,> 10 µM
same,IC50,second compound 0.1 µM,> 10 µM
same,IC50,second compound 0.316 µM,> 10 µM
same,IC50,second compound 1 µM,> 10 µM
same,IC50,second compound 3.16 µM,> 10 µM
same,IC50,second compound 10 µM,> 10 µM
same,"viability, T/C",[1],97.5%
same,"viability, T/C",[2],97.6%
same,"viability, T/C",[3],95.6%
same,"viability, T/C",[4],94.1%
same,"viability, T/C",[5],101%
same,"viability, T/C",[6],99.2%
same,"viability, T/C",[7],89.8%
same,"viability, T/C",[8],93.6%
same,"viability, T/C",[9],107%
same,"viability, T/C",[10],104%
same,"viability, T/C",[11],103%
same,"viability, T/C",[12],95.3%
same,"viability, T/C",[13],96.8%
same,"viability, T/C",[14],95.8%
same,"viability, T/C",[15],104%
same,"viability, T/C",[16],110%
same,"viability, T/C",[17],112%
same,"viability, T/C",[18],89.5%
same,"viability, T/C",[19],99.6%
same,"viability, T/C",[20],103%
same,"viability, T/C",[21],91.2%
same,"viability, T/C",[22],102%
same,"viability, T/C",[23],95.5%
same,"viability, T/C",[24],97%
same,"viability, T/C",[25],107%
same,"viability, T/C",[26],91.4%
same,"viability, T/C",[27],89%
same,"viability, T/C",[28],98.2%
same,"viability, T/C",[29],107%
same,"viability, T/C",[30],98.8%
same,"viability, T/C",[31],101%
same,"viability, T/C",[32],99.5%
same,"viability, T/C",[33],93.5%
same,"viability, T/C",[34],114%
same,"viability, T/C",[35],98.4%
same,"viability, T/C",[36],82.5%
